Counter-ions that a name gives are not always drawn.
Tests used:
Acetylcholinesterase = Acetylcholinesterase (Homo sapiens, UniProt P22303); test: Inhibition of AChE (unknown origin) by Ellman's method
K562 = test: Cytotoxicity against human K562 cells assessed as inhibition of cell growth by MTT assay; type: functional, cell-based
[1] = Cytotoxicity against human L02 cells assessed as inhibition of cell growth by SRB assay; type: toxicity, cell-based
ASPC1 = test: Cytotoxicity against human ASPC1 cells assessed as inhibition of cell growth by SRB assay; type: functional, cell-based
[2] = Cytotoxicity against human Cisplatin/etoposide-resistant NCI-H446/EP cells assessed as inhibition of cell growth by SRB assay; type: functional, cell-based
NCI-H446 = test: Cytotoxicity against human NCI-H446 cells assessed as inhibition of cell growth by SRB assay; type: functional, cell-based
[3] = Selectivity index, ratio of IC50 for cytotoxicity against human L02 cells to IC50 for cytotoxicity against human K562 cells; type: toxicity, cell-based; conditions: L02 cells and K562 cells, read-out: Ratio IC50

Acetylcholinesterase, sequence (P22303 whole entry): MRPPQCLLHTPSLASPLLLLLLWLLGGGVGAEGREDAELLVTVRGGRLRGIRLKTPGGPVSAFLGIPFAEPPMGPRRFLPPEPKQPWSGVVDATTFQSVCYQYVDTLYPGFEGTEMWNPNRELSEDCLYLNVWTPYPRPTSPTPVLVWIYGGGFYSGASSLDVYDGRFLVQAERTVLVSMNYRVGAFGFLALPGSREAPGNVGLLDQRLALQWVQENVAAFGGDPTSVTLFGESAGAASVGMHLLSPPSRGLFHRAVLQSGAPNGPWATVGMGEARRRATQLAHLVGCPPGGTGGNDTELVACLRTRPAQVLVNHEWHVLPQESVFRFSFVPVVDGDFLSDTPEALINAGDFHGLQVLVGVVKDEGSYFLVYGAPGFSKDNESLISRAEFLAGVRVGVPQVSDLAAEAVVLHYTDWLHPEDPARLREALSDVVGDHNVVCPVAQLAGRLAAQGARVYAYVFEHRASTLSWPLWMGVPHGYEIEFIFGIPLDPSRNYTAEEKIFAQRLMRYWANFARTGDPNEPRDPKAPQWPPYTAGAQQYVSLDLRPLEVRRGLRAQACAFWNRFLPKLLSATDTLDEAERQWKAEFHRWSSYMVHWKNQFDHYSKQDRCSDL

Structure (SMILES): CC1=CC(=O)[C@](C)(O)C(=O)/C1=C\Nc1ccc(Oc2ccc([N+](=O)[O-])cc2)cc1
- IC50 (Acetylcholinesterase): 68.1 µM
- IC50 (K562): > 30 µM
- IC50 [1]: > 30 µM
- IC50 (ASPC1): > 30 µM
- IC50 [2]: > 30 µM
- IC50 (NCI-H446): > 30 µM

Structure (SMILES): CC1=CC(=O)[C@](C)(O)C(=O)/C1=C\Nc1ccc(Oc2ccc(Cl)cc2)cc1
- IC50 (Acetylcholinesterase): > 100 µM
- IC50 (K562): 9.5 µM
- IC50 [1]: 17 µM
- IC50 (ASPC1): > 30 µM
- IC50 [2]: > 30 µM
- IC50 (NCI-H446): > 30 µM
- selectivity ratio [3]: 1.7

Structure (SMILES): CC1=CC(=O)[C@](C)(O)C(=O)/C1=C\Nc1ccc(Oc2ccc(C)cc2)cc1
- IC50 (Acetylcholinesterase): > 100 µM
- IC50 (K562): > 30 µM
- IC50 [1]: 19.8 µM
- IC50 (ASPC1): > 30 µM
- IC50 [2]: > 30 µM
- IC50 (NCI-H446): > 30 µM

Structure (SMILES): CC1=CC(=O)[C@@](C)(O)C(=O)/C1=C\Nc1ccc(Oc2ccc(C)cc2)cc1
- IC50 (Acetylcholinesterase): > 100 µM
- IC50 (K562): > 30 µM
- IC50 [1]: > 30 µM
- IC50 (ASPC1): > 30 µM
- IC50 [2]: > 30 µM
- IC50 (NCI-H446): > 30 µM

Structure (SMILES): CC1=CC(=O)[C@@](C)(O)C(=O)/C1=C\Nc1ccccc1
- IC50 (Acetylcholinesterase): > 100 µM
- IC50 (K562): > 30 µM
- IC50 [1]: > 30 µM
- IC50 (ASPC1): > 30 µM
- IC50 [2]: > 30 µM
- IC50 (NCI-H446): > 30 µM

Structure (SMILES): CC1=CC(=O)[C@@](C)(O)C(=O)/C1=C\Nc1ccc(Oc2ccc(Cl)cc2)cc1
- IC50 (Acetylcholinesterase): > 100 µM
- IC50 (K562): > 30 µM
- IC50 [1]: > 30 µM
- IC50 (ASPC1): > 30 µM
- IC50 [2]: > 30 µM
- IC50 (NCI-H446): > 30 µM

Structure (SMILES): CC1=CC(=O)[C@@](C)(O)C(=O)/C1=C\Nc1ccc(Oc2cccc(F)c2)cc1
- IC50 (Acetylcholinesterase): > 100 µM
- IC50 (K562): > 30 µM
- IC50 [1]: > 30 µM
- IC50 (ASPC1): > 30 µM
- IC50 [2]: > 30 µM
- IC50 (NCI-H446): > 30 µM

Structure (SMILES): CC1=CC(=O)[C@](C)(O)C(=O)/C1=C\Nc1ccc(Oc2cccc(F)c2)cc1
- IC50 (Acetylcholinesterase): > 100 µM
- IC50 (K562): 15.5 µM
- IC50 [1]: > 30 µM
- IC50 (ASPC1): > 30 µM
- IC50 [2]: > 30 µM
- IC50 (NCI-H446): > 30 µM
- selectivity ratio [3]: > 1.9

Structure (SMILES): CC1=CC(=O)[C@@](C)(O)C(=O)/C1=C\Nc1ccc(Oc2ccc([N+](=O)[O-])cc2)cc1
- IC50 (Acetylcholinesterase): > 100 µM
- IC50 (K562): > 30 µM
- IC50 [1]: > 30 µM
- IC50 (ASPC1): > 30 µM
- IC50 [2]: > 30 µM
- IC50 (NCI-H446): > 30 µM

Structure (SMILES): COc1cccc2c1C(=O)c1c(O)c3c(c(O)c1C2=O)C[C@@](O)(C(=O)CO)C[C@@H]3O[C@H]1C[C@H](N)[C@H](O)[C@H](C)O1 [DOXORUBICIN HYDROCHLORIDE]
- IC50 (ASPC1): 15.1 µM
- IC50 [2]: 0.2 µM
- IC50 (NCI-H446): 0.3 µM

Structure (SMILES): CC1=CC(=O)[C@](C)(O)C(=O)/C1=C\Nc1ccc(Cc2ccccc2)cc1
- IC50 (Acetylcholinesterase): 4.5 µM
- IC50 (K562): 5.6 µM
- IC50 [1]: 18.6 µM
- IC50 (ASPC1): > 30 µM
- IC50 [2]: > 30 µM
- IC50 (NCI-H446): > 30 µM
- selectivity ratio [3]: 3.3

Structure (SMILES): CC1=CC(=O)[C@](C)(O)C(=O)/C1=C\Nc1ccccc1
- IC50 (Acetylcholinesterase): > 100 µM
- IC50 (K562): > 30 µM
- IC50 [1]: > 30 µM
- IC50 (ASPC1): > 30 µM
- IC50 [2]: > 30 µM
- IC50 (NCI-H446): > 30 µM

Structure (SMILES): CC1=CC(=O)[C@@](C)(O)C(=O)/C1=C\Nc1ccc(Cc2ccccc2)cc1
- IC50 (Acetylcholinesterase): > 100 µM
- IC50 (K562): > 30 µM
- IC50 [1]: > 30 µM
- IC50 (ASPC1): > 30 µM
- IC50 [2]: > 30 µM
- IC50 (NCI-H446): > 30 µM

Structure (SMILES): CC1=CC(=O)[C@](C)(O)C(=O)/C1=C\Nc1ccc(Oc2ccc(C#N)cc2)cc1
- IC50 (Acetylcholinesterase): 24.4 µM
- IC50 (K562): > 30 µM
- IC50 [1]: > 30 µM
- IC50 (ASPC1): > 30 µM
- IC50 [2]: > 30 µM
- IC50 (NCI-H446): > 30 µM

Structure (SMILES): CC1=CC(=O)[C@@](C)(O)C(=O)/C1=C\Nc1ccc(Oc2ccc(C#N)cc2)cc1
- IC50 (Acetylcholinesterase): 4.7 µM
- IC50 (K562): > 30 µM
- IC50 [1]: > 30 µM
- IC50 (ASPC1): > 30 µM
- IC50 [2]: > 30 µM
- IC50 (NCI-H446): > 30 µM

Source: ChEMBL document CHEMBL6103643, “Total Synthesis of (-)- and (+)-Talaroenamine B and Diphenylene Derivatives” (J Nat Prod, 2025)
